Consider four compounds from article PMC10518257 (Nature Cancer, 2023).

Structures are written as SMILES. Where “and” joins values, the source holds several entries; their conditions need not be identical. Equal entries are not always repeated.

The test system of series [1] is LUAD-0087AS2 PDX. Description: PDX efficacy study. To be noted: individual animals; for Tumor volume: LUAD-0087AS2, 30 mg/kg BID.
In series [2] the target is T1, KIF5B–RET G736A (Homo sapiens, UniProt P07949, G736A).
T1 construct: Fusion of the RET kinase domain with several N-terminal partners such as kinesin family 5B (KIF5B); KIF5B (N-terminal fusion partner); expressed in transfected cells; host or cells: Jump-In GripTite HEK293 (transient)
T1 sequence (P07949 713-1063 G736A limits assumed): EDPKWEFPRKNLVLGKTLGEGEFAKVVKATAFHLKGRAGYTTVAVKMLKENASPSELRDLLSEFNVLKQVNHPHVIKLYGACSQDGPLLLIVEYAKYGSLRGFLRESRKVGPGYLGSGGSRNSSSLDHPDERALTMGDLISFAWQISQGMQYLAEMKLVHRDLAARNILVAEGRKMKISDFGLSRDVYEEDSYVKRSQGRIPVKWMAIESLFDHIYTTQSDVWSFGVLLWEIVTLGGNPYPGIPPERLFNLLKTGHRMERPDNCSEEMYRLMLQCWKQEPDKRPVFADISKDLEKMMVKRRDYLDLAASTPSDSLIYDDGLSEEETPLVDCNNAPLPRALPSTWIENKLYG
Description: In-cell western assay of RET autophosphorylation. The class given is cell-based. To be noted: Jump-In GripTite HEK293 cells, one hour; Mean.

Series [3] has as its target T2, KIF5B–RET G810A (Homo sapiens, UniProt P07949, G810A).
T2 construct: Fusion of the RET kinase domain with several N-terminal partners such as kinesin family 5B (KIF5B); KIF5B (N-terminal fusion partner); expressed in transfected cells; host or cells: Jump-In GripTite HEK293 (transient)
Description: In-cell western assay of RET autophosphorylation. Format: cell-based. Particulars: Jump-In GripTite HEK293 cells, one hour; Mean.

The target in series [4] is T3, KIF5B–RET M759I (Homo sapiens, UniProt P07949, M759I).
T3 construct: Fusion of the RET kinase domain with several N-terminal partners such as kinesin family 5B (KIF5B); KIF5B (N-terminal fusion partner); expressed in transfected cells; host or cells: Jump-In GripTite HEK293 (transient)
T3 sequence (P07949 713-1063 M759I limits assumed): as the sequence (P07949 713-1063 G736A limits assumed) above, with A24G, M47I counted along it
The series is described as follows: In-cell western assay of RET autophosphorylation. To be noted: Jump-In GripTite HEK293 cells, one hour; Mean (TPX-0046: the three replicates). Format: cell-based.

In series [5] the target is T4, KIF5B–RET Y806C (Homo sapiens, UniProt P07949, Y806C).
T4 construct: Fusion of the RET kinase domain with several N-terminal partners such as kinesin family 5B (KIF5B); KIF5B (N-terminal fusion partner); expressed in transfected cells; host or cells: Jump-In GripTite HEK293 (transient)
T4 sequence (P07949 713-1063 Y806C limits assumed): as the sequence (P07949 713-1063 G736A limits assumed) above, with A24G, Y94C counted along it
Description: In-cell western assay of RET autophosphorylation. Format: cell-based. Particulars: Jump-In GripTite HEK293 cells, one hour; Mean.

Series [6] has as its target T5, KIF5B–RET L730R (Homo sapiens, UniProt P07949, L730R).
T5 construct: Fusion of the RET kinase domain with several N-terminal partners such as kinesin family 5B (KIF5B); KIF5B (N-terminal fusion partner); expressed in transfected cells; host or cells: Jump-In GripTite HEK293 (transient)
Description: In-cell western assay of RET autophosphorylation. Format: cell-based. To be noted: Jump-In GripTite HEK293 cells, one hour; Mean.

The target of series [7] is T6, KIF5B–RET WT (Homo sapiens, UniProt P07949).
T6 construct: Fusion of the RET kinase domain with several N-terminal partners such as kinesin family 5B (KIF5B); KIF5B (N-terminal fusion partner); expressed in transfected cells; host or cells: Jump-In GripTite HEK293 (transient, pJTI Fast-based vector)
T6 sequence (P07949 713-1063 limits assumed): as the sequence (P07949 713-1063 G736A limits assumed) above, with A24G counted along it
Description: In-cell western assay of RET autophosphorylation. Format: cell-based. To be noted: Jump-In GripTite HEK293, 1 h, phospho-RET (Y905)/RET.

Series [8] concerns the target T7, KIF5B–RET E732K (Homo sapiens, UniProt P07949, E732K).
T7 construct: Fusion of the RET kinase domain with several N-terminal partners such as kinesin family 5B (KIF5B); KIF5B (N-terminal fusion partner); expressed in transfected cells; host or cells: Jump-In GripTite HEK293 (transient)
Description: In-cell western assay of RET autophosphorylation. Format: cell-based. To be noted: Jump-In GripTite HEK293 cells, one hour; Mean.

In series [9] the target is T8, KIF5B–RET E768Q (Homo sapiens, UniProt P07949, E768Q).
T8 construct: Fusion of the RET kinase domain with several N-terminal partners such as kinesin family 5B (KIF5B); KIF5B (N-terminal fusion partner); expressed in transfected cells; host or cells: Jump-In GripTite HEK293 (transient)
T8 sequence (P07949 713-1063 E768Q limits assumed): as the sequence (P07949 713-1063 G736A limits assumed) above, with A24G, E56Q counted along it
The series is described as follows: In-cell western assay of RET autophosphorylation. Particulars: Jump-In GripTite HEK293 cells, one hour; Mean. Format: cell-based.

The target of series [10] is T9, KIF5B–RET L760Q (Homo sapiens, UniProt P07949, L760Q).
T9 construct: Fusion of the RET kinase domain with several N-terminal partners such as kinesin family 5B (KIF5B); KIF5B (N-terminal fusion partner); expressed in transfected cells; host or cells: Jump-In GripTite HEK293 (transient)
T9 sequence (P07949 713-1063 L760Q limits assumed): as the sequence (P07949 713-1063 G736A limits assumed) above, with A24G, L48Q counted along it
Description: In-cell western assay of RET autophosphorylation. Format: cell-based. To be noted: Jump-In GripTite HEK293 cells, one hour; Mean.

Series [11] deals with T10, KIF5B–RET G810R (Homo sapiens, UniProt P07949, G810R).
T10 construct: Fusion of the RET kinase domain with several N-terminal partners such as kinesin family 5B (KIF5B); KIF5B (N-terminal fusion partner); expressed in transfected cells; host or cells: Jump-In GripTite HEK293 (transient)
T10 sequence (P07949 713-1063 G810R limits assumed): as the sequence (P07949 713-1063 G736A limits assumed) above, with A24G, G98R counted along it
The series is described as follows: In-cell western assay of RET autophosphorylation. Format: cell-based. To be noted: Jump-In GripTite HEK293, 1 h, phospho-RET (Y905)/RET.

Series [12] has as its target T11, recombinant human RET (Homo sapiens, UniProt P07949).
T11 construct: purchased Carna Biosciences, Inc (Kobe, Japan)
The series is described as follows: RET^WT kinase-inhibition assay (LANCE TR-FRET). To be noted: 10 μM ATP. The class given is biochemical.

The target in series [13] is T12, KIF5B–RET G810D (Homo sapiens, UniProt P07949, G810D).
T12 construct: Fusion of the RET kinase domain with several N-terminal partners such as kinesin family 5B (KIF5B); KIF5B (N-terminal fusion partner); expressed in transfected cells; host or cells: Jump-In GripTite HEK293 (transient)
T12 sequence (P07949 713-1063 G810D limits assumed): as the sequence (P07949 713-1063 G736A limits assumed) above, with A24G, G98D counted along it
The series is described as follows: In-cell western assay of RET autophosphorylation. Format: cell-based. Particulars: Jump-In GripTite HEK293 cells, one hour; Mean.

Series [14] addresses T13, KIF5B–RET G810S (Homo sapiens, UniProt P07949, G810S).
T13 construct: Fusion of the RET kinase domain with several N-terminal partners such as kinesin family 5B (KIF5B); KIF5B (N-terminal fusion partner); expressed in transfected cells; host or cells: Jump-In GripTite HEK293 (transient)
Description: In-cell western assay of RET autophosphorylation. The class given is cell-based. To be noted: Jump-In GripTite HEK293 cells, one hour; Mean.

The target in series [15] is T14, KIF5B–RET L772M (Homo sapiens, UniProt P07949, L772M).
T14 construct: Fusion of the RET kinase domain with several N-terminal partners such as kinesin family 5B (KIF5B); KIF5B (N-terminal fusion partner); expressed in transfected cells; host or cells: Jump-In GripTite HEK293 (transient)
T14 sequence (P07949 713-1063 L772M limits assumed): as the sequence (P07949 713-1063 G736A limits assumed) above, with A24G, L60M counted along it
Description: In-cell western assay of RET autophosphorylation. The class given is cell-based. To be noted: Jump-In GripTite HEK293 cells, one hour; Mean.

Series [16] is described as follows: in vivo. To be noted: male, BALB/c, mouse, brain and plasma, po, 50 mg/kg, Kp,uu,brain (unbound brain/plasma concentration ratio), male BALB/c mice, 50 mg per kg oral, 0.5 h or 1 h.
Series [17] deals with T15, KIF5B–RET L730Q (Homo sapiens, UniProt P07949, L730Q).
T15 construct: Fusion of the RET kinase domain with several N-terminal partners such as kinesin family 5B (KIF5B); KIF5B (N-terminal fusion partner); expressed in transfected cells; host or cells: Jump-In GripTite HEK293 (transient)
T15 sequence (P07949 713-1063 L730Q limits assumed): as the sequence (P07949 713-1063 G736A limits assumed) above, with L18Q, A24G counted along it
The series is described as follows: In-cell western assay of RET autophosphorylation. Format: cell-based. To be noted: Jump-In GripTite HEK293 cells, one hour; Mean.

The target in series [18] is panel of 255 (vepafestinib) or 256 (all other inhibitors) recombinant kinases. Description: Kinase selectivity profiling at a single concentration (Carna Biosciences). To be noted: 26 nM, 256 kinases. Format: biochemical.
For series [19], the target named is T16, KIF5B–RET G810C (Homo sapiens, UniProt P07949, G810C).
T16 construct: Fusion of the RET kinase domain with several N-terminal partners such as kinesin family 5B (KIF5B); KIF5B (N-terminal fusion partner); expressed in transfected cells; host or cells: Jump-In GripTite HEK293 (transient)
T16 sequence (P07949 713-1063 G810C limits assumed): as the sequence (P07949 713-1063 G736A limits assumed) above, with A24G, G98C counted along it
Description: In-cell western assay of RET autophosphorylation. The class given is cell-based. To be noted: Jump-In GripTite HEK293 cells, one hour; Mean.

The target of series [20] is T17, KIF5B–RET I788N (Homo sapiens, UniProt P07949, I788N).
T17 construct: Fusion of the RET kinase domain with several N-terminal partners such as kinesin family 5B (KIF5B); KIF5B (N-terminal fusion partner); expressed in transfected cells; host or cells: Jump-In GripTite HEK293 (transient)
T17 sequence (P07949 713-1063 I788N limits assumed): as the sequence (P07949 713-1063 G736A limits assumed) above, with A24G, I76N counted along it
Description: In-cell western assay of RET autophosphorylation. Particulars: Jump-In GripTite HEK293 cells, one hour; Mean. The class given is cell-based.

For series [21], the system named is LUAD-0057AS1 PDX. The series is described as follows: PDX efficacy study.

T7 sequence (P07949 713-1063 E732K limits assumed): as the sequence (P07949 713-1063 G736A limits assumed) above, with E20K, A24G counted along it
T2 sequence (P07949 713-1063 G810A limits assumed): as the sequence (P07949 713-1063 G736A limits assumed) above, with A24G, G98A counted along it
T13 sequence (P07949 713-1063 G810S limits assumed): as the sequence (P07949 713-1063 G736A limits assumed) above, with A24G, G98S counted along it
T11 sequence (P07949 29-1114): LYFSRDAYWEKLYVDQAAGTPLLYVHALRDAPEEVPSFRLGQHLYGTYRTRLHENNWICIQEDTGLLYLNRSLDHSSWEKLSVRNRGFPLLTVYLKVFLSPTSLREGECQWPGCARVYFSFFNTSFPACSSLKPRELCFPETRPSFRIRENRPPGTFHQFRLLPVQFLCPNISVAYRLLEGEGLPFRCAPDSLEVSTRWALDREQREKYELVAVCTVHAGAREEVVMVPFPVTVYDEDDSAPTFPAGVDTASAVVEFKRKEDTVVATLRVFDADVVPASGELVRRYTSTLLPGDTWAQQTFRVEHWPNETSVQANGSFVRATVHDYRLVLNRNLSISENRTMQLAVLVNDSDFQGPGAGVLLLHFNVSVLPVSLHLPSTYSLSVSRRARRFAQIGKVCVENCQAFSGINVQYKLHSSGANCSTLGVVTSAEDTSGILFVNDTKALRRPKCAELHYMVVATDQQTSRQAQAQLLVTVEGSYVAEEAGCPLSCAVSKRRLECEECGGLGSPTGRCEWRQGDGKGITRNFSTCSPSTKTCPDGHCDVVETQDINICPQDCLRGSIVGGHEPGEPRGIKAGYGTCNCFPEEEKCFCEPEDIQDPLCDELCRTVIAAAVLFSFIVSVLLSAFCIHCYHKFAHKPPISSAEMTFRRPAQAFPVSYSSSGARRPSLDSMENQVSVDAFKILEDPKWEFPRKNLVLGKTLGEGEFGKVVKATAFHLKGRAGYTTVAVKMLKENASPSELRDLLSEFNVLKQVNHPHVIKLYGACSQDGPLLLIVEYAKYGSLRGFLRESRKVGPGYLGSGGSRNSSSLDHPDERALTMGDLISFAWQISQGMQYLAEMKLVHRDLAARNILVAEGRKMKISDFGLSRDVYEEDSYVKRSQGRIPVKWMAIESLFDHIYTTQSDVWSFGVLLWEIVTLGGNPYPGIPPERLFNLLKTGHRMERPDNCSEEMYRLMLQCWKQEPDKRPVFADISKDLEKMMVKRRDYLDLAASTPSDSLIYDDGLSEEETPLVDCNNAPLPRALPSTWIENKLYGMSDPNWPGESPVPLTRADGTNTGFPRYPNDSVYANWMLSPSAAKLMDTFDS
T5 sequence (P07949 713-1063 L730R limits assumed): as the sequence (P07949 713-1063 G736A limits assumed) above, with L18R, A24G counted along it

`COC1(C(=O)NC(C)c2ccc(-n3cc(F)cn3)nc2)CCC(c2nc(C)cc(Nc3cc(C)[nH]n3)n2)CC1` (centres unmarked) [Prasletinib]: the Tumor volume in series [1] (treatment day 0) was 122.74 and 122.52 (2×) and 118.47 (2×); in [1] (treatment day 3), 116.87 and 110.97 (2×) and 118.47 and 114.83; in series [1] (treatment day 7) it was 100.16 and 96.62 (2×) and 101.37 and 91.61; in series [1] (treatment day 10), 100.16 and 103.77 and 96.62 and 99.78 and 95.03; in series [1] (treatment day 14) it was 96.88 and 83.83 and 88.25 and 99.78 and 90.28; in [1] (treatment day 17), 103.77 and 79.42 and 83.83 (2×) and 96.62. Further, the Tumor volume in [1] (treatment day 21) was 90.28 and 70.82 and 74.9 and 83.83 (2×); in series [1] (treatment day 24) it was 74.9 and 54.36 and 71.99 (2×) and 58.99; in series [1] (treatment day 29) it was 72.18 and 54.36 and 71.99 and 57.83 and 56.67; in series [1] (treatment day 32) it was 75.04 and 60.32 (2×) and 74.9 and 57.83; in [1] (treatment day 35) it was 75.04 and 60.32 and 74.9 (2×) and 57.83; in series [1] (treatment day 38) it was 75.04 and 60.32 and 77.63 and 90.28 and 57.83. Besides, the Tumor volume in series [1] (treatment day 42) is 77.87 and 68.07 and 77.63 and 90.28 and 60.32; in series [1] (treatment day 45), 77.87 and 68.07 and 70.69 (2×) and 60.32.
On to `C[C@H]1CNC(=O)c2cnn3cc4c(nc23)N(Cc2cc(F)cnc2O1)[C@@H]1CCC[C@@H]1O4` [TPX-0046], for which the half-maximal inhibitory concentration (IC50) in series [2] was 3.21 nM; in [3] it was 6.53 nM; in [4], < 1 nM and 1.2 nM and 1.72 nM; in [5], 50 nM; in [6], 4.49 nM; in series [7], 21.9 nM. For the same compound, the IC50 is 14.7 nM in series [8]; 4.05 nM in series [9]; 5.35 nM in series [10]; 108 nM in series [11]; 0.26 ± 0.02 nM in series [12]; 57.9 nM in series [13]. Further, the concentration for half-maximal inhibition (IC50) in series [14] is 5.87 nM; in series [15], 2.69 nM; in series [17] it was 16.6 nM; in series [19] it was 36.1 nM; in series [20] it was 50.6 nM. In addition, the Kp uu in [16] amounted to 0.077. Besides, the “kinases inhibited by >50%” value in [18] was found to be 39.
Turning to `COc1ccc(CN2C3CC2CN(c2ccc(-c4cc(OCC(C)(C)O)cn5ncc(C#N)c45)cn2)C3)cn1` [Sepercatinib], the “Change in tumor volume (% from base line)” value in series [1] (Fig. 6a LUAD-0087AS2, selpercatinib 30 mg/kg BID) is -13.818% and -42.542% and -38.123% and -35.767% and -33.072%.
For `COc1cc2nccc(Oc3ccc(NC(=O)C4(C(=O)Nc5ccc(F)cc5)CC4)cc3)c2cc1OC` [Cabozantinib], the tumor shrinkage result in series [21] (30 mg per kg QD) is listed as “did not lead to any tumor shrinkage”. The “Area Under Curve of tumor growth, Mean” value in [21] (30 mg/kg QD) is on record as 1051. Moreover, the Tumor volume in [21] (30 mg/kg QD, day 0, individual animals) is 139.24 mm3 and 130.83 mm3 and 132.84 mm3 and 134.85 mm3 and 137.16 mm3 and 136.86 mm3 and 128.59 mm3 (2×); in [21] (30 mg/kg QD, day 3, individual animals), 143.69 mm3 (2×) and 141.55 mm3 and 159.83 mm3 and 157.37 mm3 and 161.94 mm3 and 155.09 mm3 and 150.43 mm3; in series [21] (30 mg/kg QD, day 7, individual animals) it was 150.13 mm3 and 145.84 mm3 and 157.07 mm3 and 171.9 mm3 and 159.66 mm3 and 132.84 mm3 and 161.94 mm3 and 154.85 mm3; in [21] (30 mg/kg QD, day 10, individual animals), 150.13 mm3 and 154.85 mm3 (2×) and 171.06 mm3 and 197.55 mm3 and 217.15 mm3 and 132.84 mm3 and 165.92 mm3; in series [21] (30 mg/kg QD, day 14, individual animals) it was 150.13 mm3 and 176.28 mm3 and 188.03 mm3 (3×) and 224.35 mm3 and 288.71 mm3 and 168.78 mm3; in [21] (30 mg/kg QD, day 19, individual animals) it was 150.13 mm3 and 183.33 mm3 and 195.09 mm3 and 204.49 mm3 and 294.92 mm3 and 176.28 mm3 and 193.69 mm3 and 188.03 mm3. Besides, the Tumor volume in series [21] (30 mg/kg QD, day 23, individual animals) is 194.67 mm3 and 219.37 mm3 and 246.79 mm3 and 251.12 mm3 and 340.1 mm3 and 242.75 mm3 and 230.72 mm3 and 228.34 mm3. Besides, the “Change in Tumor Volume” value in series [21] (30 mg/kg QD, end of study, individual tumors) is 39.809% and 67.6756% and 85.7799% and 86.2217% and 147.959% and 77.371% and 79.423% and 77.5721%.
